Measurements reported in patent US20220033406A1, “C[…] AS ANTI-VIRALS” (priority 2018, published 2022).
pIC50: −log10 of the molar value.

Experiments:
[1] = target: T1, Recombinant full-length HIV-1 Reverse Transcriptase (HIVrt) (Human immunodeficiency virus type 1 group M subtype B, UniProt P04585); assay: Inhibition of HIV reverse transcriptase (RdDp assay); format: biochemical; conditions: 1 nM HIVrt, 30° C., 40 min, 3H-TTP incorporation; Table 3 triphosphates
T1 construct: Recombinant full-length HIV-1 Reverse Transcriptase (HIVrt); purchased Abcam ab63979
Experimental: Recombinant full-length HIV-1 Reverse Transcriptase (HIVrt) was purchased from Abcam, catalog #ab63979. The last 385 nucleotide region of the HCV anti-genome complementary to the 5′ untranslated region (c5′UTR) was synthesized using T7 RNA polymerase Megascript kit from Ambion (Cat #AM1333). A DNA oligo served as an internal initiation primer and was purchased from IDT. Unless otherwise specified, reaction samples consisted of 20 nM c5′UTR RNA, 100 nM DNA primer, and 1 nM HIVrt, mixed together in a buffer containing 50 mM Tris pH 7.5, 100 mM KCl, 4 mM dithiothreitol (DTT), and 12.5 mM MgCl2. Reactions were initiated at 30° C. by adding 0.1 μM adenosine triphosphate (dATP), 0.1 μM cytosine triphosphate (dCTP), 1 μM guanosine triphosphate (dGTP), and 0.32 μM ^3H-thymidine triphosphate (^3H-TTP), in a final volume of 50 μL. After 40-mins incubation, the reaction was terminated by adding 60 μL of chilled 20% (w/v) trichloroacetic acid with 500 μM ATP to precipitate nucleic acids. After incubation at 4° C. for 1 h, the sample underwent filtration on a multiscreen BV […] 96-well plate (Millipore). 40 μL Microscint-20 (Perkin Elmer) was added to the well and the counts in the sample were determined by a Trilux Microbeta microplate scintillation reader (Wallac).
All data were analyzed with GraphPad Prism. The compound concentration at which the enzyme-catalyzed rate was reduced by 50% (IC50) was calculated by fitting the data to the equation Y=% Min+(% Max−% Min)/(1+X/IC50), where Y corresponds to the percent relative enzyme activity, % Min is the residual relative activity at saturating compound concentration, % Max is the relative maximum enzyme activity, and X corresponds to the compound concentration. The Ki was calculated using the Cheng-Prusoff equation assuming competitive inhibition relative to natural dNTP incorporation: K=IC50/(1+[dNTP]/Km), where [dNTP] is the concentration of natural dNTP and Km is the apparent Km for dNTP. The standard HIVrt RNA-dependent DNA polymerization (RdDp) assay was used to determine the IC50 values.

[2] = target: T2, Recombinant full-length HBV polymerase (HBVpol) (Hepatitis B virus genotype D subtype ayw, UniProt P03156); assay: Inhibition of HBV polymerase (RdDp assay); format: biochemical; conditions: HBVpol expressed in SF9 cells, 30° C., 120 min, 3H-TTP incorporation; Table 3 triphosphates; read-out: HBVrt IC50
T2 construct: Recombinant full-length HBV polymerase(HBVpol) was expressed in SF9 cells; made in house; host or cells: SF9 insect cells
T2 sequence (P03156 whole entry): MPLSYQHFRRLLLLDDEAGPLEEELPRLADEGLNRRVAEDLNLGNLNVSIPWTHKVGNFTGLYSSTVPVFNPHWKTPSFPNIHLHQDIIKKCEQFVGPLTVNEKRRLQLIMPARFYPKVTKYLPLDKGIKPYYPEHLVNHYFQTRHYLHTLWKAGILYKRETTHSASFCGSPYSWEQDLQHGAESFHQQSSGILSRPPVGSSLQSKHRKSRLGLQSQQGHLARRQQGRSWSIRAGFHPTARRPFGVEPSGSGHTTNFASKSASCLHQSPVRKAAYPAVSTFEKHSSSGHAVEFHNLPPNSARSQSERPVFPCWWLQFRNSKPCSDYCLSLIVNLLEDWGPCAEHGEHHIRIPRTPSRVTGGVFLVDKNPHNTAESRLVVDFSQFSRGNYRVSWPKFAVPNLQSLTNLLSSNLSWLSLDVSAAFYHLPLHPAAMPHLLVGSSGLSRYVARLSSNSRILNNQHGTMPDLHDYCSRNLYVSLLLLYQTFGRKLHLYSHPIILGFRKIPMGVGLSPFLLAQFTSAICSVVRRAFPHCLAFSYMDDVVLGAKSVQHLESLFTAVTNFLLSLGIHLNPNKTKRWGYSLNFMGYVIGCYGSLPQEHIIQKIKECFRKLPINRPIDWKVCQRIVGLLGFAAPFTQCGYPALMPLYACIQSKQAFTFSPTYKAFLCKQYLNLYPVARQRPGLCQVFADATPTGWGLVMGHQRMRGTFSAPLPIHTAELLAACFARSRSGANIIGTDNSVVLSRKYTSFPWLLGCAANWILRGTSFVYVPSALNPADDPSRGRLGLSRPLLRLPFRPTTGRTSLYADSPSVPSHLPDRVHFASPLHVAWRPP

SMILES | pIC50 [1] | pIC50 [2]
C=C1[C@H](COP(=O)(O)OP(=O)(O)OP(=O)(O)O)[C@@H](O)C[C@@H]1n1ccc2c(N)ncnc21 [Example 22, ((1R,3S,5S)-3-(4-Amino-7H-pyrrolo[2,3-d]pyrimidin-7-yl)-5-hydroxy-2-methylenecyclopentyl)methyl Tetrahydrogen Triphosphate] | 6.80 | 
C=C1[C@H](COP(=O)(O)OP(=O)(O)OP(=O)(O)O)[C@@H](O)C[C@@H]1n1ccc2c(=O)[nH]c(N)nc21 [Example 23, ((1R,3S,5S)-3-(2-Amino-4-oxo-3,4-dihydro-7H-pyrrolo[2,3-d]pyrimidin-7-yl)-5-hydroxy-2-methylenecyclopentyl)methyl Tetrahydrogen Triphosphate] | 6.42 | 8.06
C=C1[C@@H](n2cc(C)c(=O)[nH]c2=O)C[C@H](O)[C@@]1(F)COP(=O)(O)OP(=O)(O)OP(=O)(O)O [Example 24, ((1S,3S,5S)-1-Fluoro-5-hydroxy-3-(5-methyl-2,4-dioxo-3,4-dihydropyrimidin-1(2H)-yl)-2-methylenecyclopentyl)methyl Tetrahydrogen Triphosphate] | 6.57 | 8.54
C=C1[C@@H](n2cnc3c(=O)[nH]c(N)nc32)C[C@H](O)[C@@]1(F)COP(=O)(O)OP(=O)(O)OP(=O)(O)O [Example 25, ((1S,3S,5S)-3-(2-Amino-6-oxo-1,6-dihydro-9H-purin-9-yl)-1-fluoro-5-hydroxy-2-methylenecyclopentyl)methyl Tetrahydrogen Triphosphate] | 6.60 | 8.00
C=C1[C@@H](n2cnc3c(N)ncnc32)C[C@H](O)[C@@]1(F)COP(=O)(O)OP(=O)(O)OP(=O)(O)O [Example 26, ((1S,3S,5S)-3-(6-Amino-9H-purin-9-yl)-1-fluoro-5-hydroxy-2-methylenecyclopentyl)methyl Tetrahydrogen Triphosphate] | 7.09 | 8.09
C=C1[C@@H](n2ccc3c(N)ncnc32)C[C@H](O)[C@@]1(F)COP(=O)(O)OP(=O)(O)OP(=O)(O)O [Example 27, ((1S,3S,5S)-3-(4-Amino-7H-pyrrolo[2,3-d]pyrimidin-7-yl)-1-fluoro-5-hydroxy-2-methylenecyclopentyl)methyl Tetrahydrogen Triphosphate] | 7.18 | 8.14
C=C1[C@@H](n2cnc3c(=O)[nH]c(N)nc32)C[C@H](O)[C@@]1(CF)COP(=O)(O)OP(=O)(O)OP(=O)(O)O [Example 28, ((1S,3S,5S)-3-(2-Amino-6-oxo-1,6-dihydro-9H-purin-9-yl)-1-(fluoromethyl)-5-hydroxy-2-methylenecyclopentyl)methyl Tetrahydrogen Triphosphate] | 6.13 | 
C=C1[C@@H](n2ccc(N)nc2=O)C[C@H](O)[C@@]1(CF)COP(=O)(O)OP(=O)(O)OP(=O)(O)O [Example 29, ((1S,3S,5S)-3-(4-Amino-2-oxopyrimidin-1(2H)-yl)-1-(fluoromethyl)-5-hydroxy-2-methylenecyclopentyl)methyl Tetrahydrogen Triphosphate] | 6.49 | 6.42
C=C1[C@@H](n2cc(C)c(=O)[nH]c2=O)C[C@H](O)[C@@]1(CF)COP(=O)(O)OP(=O)(O)OP(=O)(O)O [Example 30, ((1S,3S,5S)-1-(Fluoromethyl)-5-hydroxy-3-(5-methyl-2,4-dioxo-3,4-dihydropyrimidin-1(2H)-yl)-2-methylenecyclopentyl)methyl Tetrahydrogen Triphosphate] | 5.87 | 
C=C1[C@@H](n2cnc3c(N)ncnc32)C[C@H](O)[C@@]1(CCl)COP(=O)(O)OP(=O)(O)OP(=O)(O)O [Example 31, ((1S,3S,5S)-3-(6-Amino-9H-purin-9-yl)-1-(chloromethyl)-5-hydroxy-2-methylenecyclopentyl)methyl Tetrahydrogen Triphosphate] | 6.44 | 
C=C1[C@@H](n2cc(C)c(=O)[nH]c2=O)C[C@H](O)[C@@]1(C#N)COP(=O)(O)OP(=O)(O)OP(=O)(O)O [Example 32, ((1S,3S,5S)-1-Cyano-5-hydroxy-3-(5-methyl-2,4-dioxo-3,4-dihydropyrimidin-1(2H)-yl)-2-methylenecyclopentyl)methyl Tetrahydrogen Triphosphate] | 6.32 | < 6.00
C=C1[C@@H](n2ccc(N)nc2=O)C[C@H](O)[C@@]1(C#N)COP(=O)(O)OP(=O)(O)OP(=O)(O)O [Example 33, ((1S,3S,5S)-3-(4-Amino-2-oxopyrimidin-1(2H)-yl)-1-cyano-5-hydroxy-2-methylenecyclopentyl)methyl Tetrahydrogen Triphosphate] | 7.11 | 6.66
C=C1[C@@H](n2cnc3c(N)ncnc32)C[C@H](O)[C@@]1(C#N)COP(=O)(O)OP(=O)(O)OP(=O)(O)O [Example 34, ((1S,3S,5S)-3-(6-Amino-9H-purin-9-yl)-1-cyano-5-hydroxy-2-methylenecyclopentyl)methyl Tetrahydrogen Triphosphate] | < 5.00 | 
C=C1[C@@H](n2cnc3c(=O)[nH]c(N)nc32)C[C@H](O)[C@@]1(C#N)COP(=O)(O)OP(=O)(O)OP(=O)(O)O [Example 35, ((1S,3S,5S)-3-(2-Amino-6-oxo-1,6-dihydro-9H-purin-9-yl)-1-cyano-5-hydroxy-2-methylenecyclopentyl)methyl Tetrahydrogen Triphosphate] | 6.58 | 
C#C[C@]1(COP(=O)(O)OP(=O)(O)OP(=O)(O)O)C(=C)[C@@H](n2cnc3c(N)ncnc32)C[C@@H]1O [Example 36] | 7.48 | 
C=C[C@]1(COP(=O)(O)OP(=O)(O)OP(=O)(O)O)C(=C)[C@@H](n2cnc3c(N)ncnc32)C[C@@H]1O [Example 37, ((1R,3S,5S)-3-(6-Amino-9H-purin-9-yl)-5-hydroxy-2-methylene-1-vinylcyclopentyl)methyl Tetrahydrogen Triphosphate] | < 5.00 | 
